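Interpolation was linear, between the two tested concentrations surrounding the appropriate level; five concentrations were tested over 48 hours in 96-well plates. Abbreviation: GI50, concentration required for 50% inhibition of growth. TGI marks complete inhibition of growth.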
Experiments:
Experiment in all cases: DTP human tumour cell line panel, 48 h
[1] = test system: 786-0 renal
[2] = test system: A498 renal
[3] = test system: A549 NSCLC
[4] = test system: ACHN renal
[5] = test system: BT-549 breast
[6] = test system: CAKI-1 renal
[7] = test system: CCRF-CEM leukemia
[8] = test system: COLO 205 colon
[9] = test system: DU-145 prostate
[10] = test system: EKVX NSCLC
[11] = test system: HCC-2998 colon
[12] = test system: HCT-116 colon
[13] = test system: HCT-15 colon
[14] = test system: HL-60(TB) leukemia
[15] = test system: HOP-62 NSCLC
[16] = test system: HOP-92 NSCLC
[17] = test system: HS 578T breast
[18] = test system: HT29 colon
[19] = test system: IGROV1 ovarian
[20] = test system: K-562 leukemia
[21] = test system: KM12 colon
[22] = test system: LOX IMVI melanoma
[23] = test system: M14 melanoma
[24] = test system: MALME-3M melanoma
[25] = test system: MCF7 breast
[26] = test system: MDA-MB-231 breast
[27] = test system: MDA-MB-435
[28] = test system: MOLT-4 leukemia
[29] = test system: NCI-H226 lung
[30] = test system: NCI-H23 lung
[31] = test system: NCI-H522 lung
[32] = test system: NCI/ADR-RES ovarian
[33] = test system: OVCAR-3 ovarian
[34] = test system: OVCAR-4 ovarian
[35] = test system: OVCAR-5 ovarian
[36] = test system: OVCAR-8 ovarian
[37] = test system: PC-3 prostate
[38] = test system: RPMI-8226 leukemia
[39] = test system: RXF 393 renal
[40] = test system: SF-268 CNS
[41] = test system: SF-295 CNS
[42] = test system: SF-539 CNS
[43] = test system: SK-MEL-2 melanoma
[44] = test system: SK-MEL-28 melanoma
[45] = test system: SK-MEL-5 melanoma
[46] = test system: SK-OV-3 ovarian
[47] = test system: SN12C renal
[48] = test system: SNB-19 CNS
[49] = test system: SNB-75 CNS
[50] = test system: SR leukemia
[51] = test system: SW-620 colon
[52] = test system: T-47D breast
[53] = test system: TK-10 renal
[54] = test system: U251 CNS
[55] = test system: UACC-257 melanoma
[56] = test system: UACC-62 melanoma
[57] = test system: UO-31 renal

COc1cccc2c1C(=O)c1c(O)c3c(c(O)c1C2=O)C[C@@](O)(C(C)=O)C[C@@H]3O[C@H]1C[C@H](N)[C@H](O)[C@H](C)O1
GI50 [1]: 68.5 nM
TGI [1]: 517 nM
TGI [2]: 896 nM
GI50 [3]: 42.7 nM
TGI [3]: 201 nM
GI50 [4]: 45.2 nM
TGI [4]: 395 nM
GI50 [5]: 153 nM
TGI [5]: 924 nM
GI50 [6]: 229 nM
TGI [6]: 1530 nM
GI50 [7]: 22.8 nM
TGI [7]: 293 nM
GI50 [8]: 52.4 nM
TGI [8]: 655 nM
GI50 [9]: 68.7 nM
TGI [9]: 340 nM
GI50 [10]: 360 nM
TGI [10]: 2630 nM
GI50 [11]: 99.2 nM
TGI [11]: 475 nM
GI50 [12]: 28.6 nM
TGI [12]: 216 nM
TGI [13]: 5.69 µM
GI50 [14]: 31.2 nM
TGI [14]: 358 nM
GI50 [15]: 53 nM
TGI [15]: 263 nM
GI50 [16]: 29.6 nM
TGI [16]: 276 nM
GI50 [17]: 120 nM
TGI [17]: 1820 nM
GI50 [18]: 50.7 nM
TGI [18]: 337 nM
GI50 [19]: 60.9 nM
TGI [19]: 2580 nM
GI50 [20]: 51.3 nM
TGI [20]: 868 nM
GI50 [21]: 96 nM
TGI [21]: 497 nM
TGI [22]: 107 nM
GI50 [23]: 118 nM
TGI [23]: 653 nM
TGI [24]: 235 nM
GI50 [25]: 19.5 nM
TGI [25]: 2040 nM
GI50 [26]: 201 nM
TGI [26]: 2750 nM
GI50 [27]: 137 nM
TGI [27]: 672 nM
GI50 [28]: 16.5 nM
TGI [28]: 117 nM
GI50 [29]: 53.2 nM
TGI [29]: 119 nM
GI50 [30]: 59.4 nM
TGI [30]: 262 nM
GI50 [31]: 36.2 nM
TGI [31]: 163 nM
GI50 [32]: 1230 nM
TGI [32]: 9.04 µM
GI50 [33]: 125 nM
TGI [33]: 777 nM
GI50 [34]: 128 nM
TGI [34]: 1060 nM
GI50 [35]: 155 nM
TGI [35]: 2260 nM
GI50 [36]: 41.6 nM
TGI [36]: 1090 nM
GI50 [37]: 108 nM
TGI [37]: 975 nM
GI50 [38]: 90.2 nM
TGI [38]: 327 nM
GI50 [39]: 92.4 nM
TGI [39]: 341 nM
GI50 [40]: 54.8 nM
TGI [40]: 585 nM
GI50 [41]: 42.8 nM
TGI [41]: 245 nM
TGI [42]: 546 nM
GI50 [43]: 158 nM
TGI [43]: 506 nM
GI50 [44]: 132 nM
TGI [44]: 680 nM
GI50 [45]: 48.8 nM
TGI [45]: 143 nM
GI50 [46]: 88.7 nM
TGI [46]: 1320 nM
GI50 [47]: 41.6 nM
TGI [47]: 451 nM
GI50 [48]: 36.1 nM
TGI [48]: 1350 nM
GI50 [49]: 39.1 nM
TGI [49]: 359 nM
GI50 [50]: 7.24 nM
TGI [50]: 188 nM
GI50 [51]: 35.5 nM
TGI [51]: 855 nM
GI50 [52]: 40.8 nM
TGI [52]: 312 nM
GI50 [53]: 93.6 nM
TGI [53]: 793 nM
GI50 [54]: 38.1 nM
TGI [54]: 217 nM
TGI [55]: 426 nM
GI50 [56]: 59.8 nM
TGI [56]: 205 nM
GI50 [57]: 175 nM
TGI [57]: 1260 nM
